Reference: patent US20240327429A1, “[1,3]Thiazolo[4,5-d]-pyrimidon-7-ones as inhibitors of NOX4” (Boehringer Ingelheim International GmbH, priority 2023, published 2024)

molecular target: T1, human NOX3 (hNOX3) (Homo sapiens, UniProt Q9HBY0); assay: NOX3 inhibition assay (L-012), HEK293 cells stably overexpressing human NOX3; assay type: cell-based; conditions: HEK293-hNOX3, PMA stimulated
T1 construct: pLV-CMV-hNOX3-puro (NM_015718.3); host or cells: HEK293 (CLS GmbH), lentiviral transduction
T1 sequence (Q9HBY0 1-568): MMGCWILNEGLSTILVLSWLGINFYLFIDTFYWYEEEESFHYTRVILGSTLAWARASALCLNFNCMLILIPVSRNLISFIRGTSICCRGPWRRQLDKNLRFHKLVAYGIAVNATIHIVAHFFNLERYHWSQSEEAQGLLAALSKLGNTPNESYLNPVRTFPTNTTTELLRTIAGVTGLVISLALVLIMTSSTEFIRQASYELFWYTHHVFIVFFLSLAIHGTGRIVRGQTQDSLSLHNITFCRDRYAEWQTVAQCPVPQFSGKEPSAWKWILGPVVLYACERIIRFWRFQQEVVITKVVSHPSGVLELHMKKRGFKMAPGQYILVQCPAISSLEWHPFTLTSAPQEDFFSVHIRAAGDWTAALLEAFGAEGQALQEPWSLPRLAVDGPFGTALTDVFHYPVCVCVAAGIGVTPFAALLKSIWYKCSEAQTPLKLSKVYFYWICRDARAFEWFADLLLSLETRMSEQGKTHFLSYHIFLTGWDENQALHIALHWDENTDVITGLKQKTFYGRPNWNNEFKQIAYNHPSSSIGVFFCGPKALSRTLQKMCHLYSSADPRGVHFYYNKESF
T1 sequence (P13498 2-195 partner limits assumed): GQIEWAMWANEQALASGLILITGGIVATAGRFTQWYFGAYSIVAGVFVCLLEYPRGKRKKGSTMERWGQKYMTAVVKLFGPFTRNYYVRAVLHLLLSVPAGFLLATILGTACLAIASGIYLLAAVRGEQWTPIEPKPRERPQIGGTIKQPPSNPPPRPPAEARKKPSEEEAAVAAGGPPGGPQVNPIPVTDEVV
Description: Plasmids are Purchased from Vectorbuilder. • for HEK-hNOX1 all necessary subunits are cloned accordingly: • pLV-CMV-hNOX1-puro (NM_007052.5) • pLV-CMV-hNOXO1-blas (NM_172168.3) • pLV-CMV-hp22phox-hygro (NM_000101.4) • pLV-CMV-hNOXA1-neo (NM_006647.2) • for HEK-hNOX3 • pLV-CMV-hNOX3-puro (NM_015718.3)
3rd generation lentiviral particles are produced in HEK293 suspension cells by transient transfection of three helper and expression plasmids. Crucial lentivirus supernatants are harvested, clarified by filtration and concentrated by precipitation. Lentivirus titers are determined in transducing units in (TU/mL) by transduction of HT1080 cells and colony forming assay. Parental HEK293 cells, purchased from CLS GmbH, are transduced with replication-incompetent 3rd generation lentiviral particles (MOI 2) and expanded for at least 2 weeks before cryopreservation of tested lots. During cultivation, medium is changed three times per week and cells are sub-cultured at least once per week. Selection antibiotics are added according to the plasmids (1 μg/ml puromycin, 1.5 μg/ml blasticidin, 200 μg/ml G418 and 100 μg/ml hygromycin).
Evaluation of the NOX4 inhibitors on NOX3 activity is assessed in HEK293 cells stably overexpressing human NOX3 (hNOX3).
Cells are seeded in 384 well plates for 2 days. […] Cells are then stimulated with PMA at 0.1 μM to induce NOX3-dependent ROS production. […] Luminescence is measured with an PHERAstar multimode reader.

IC50 [µM]	Structure (SMILES)
56.4	O=c1c2scnc2nc(SCc2ccc(C(F)(F)F)cc2Cl)n1-c1cnc(O)c(F)c1 [Example 46]
39.9	O=c1c2scnc2nc(SCc2ccc(Cl)cc2F)n1-c1cnc(O)c(F)c1 [Example 35]
> 100	Cc1cc(Cl)ccc1CSc1nc2ncsc2c(=O)n1-c1cc(F)c(O)c(F)c1 [Example 3]
4	O=c1c2scnc2nc(SCc2c(F)cc(F)cc2F)n1-c1cc(F)c(O)cc1F [Example 10, 6-(2,5-Difluoro-4-hydroxyphenyl)-5-((2,4,6-trifluorobenzyl)thio)thiazolo[4,5-d]pyrimidin-7(6H)-one]
15.5	O=c1c2scnc2nc(SCc2c(F)cc(F)cc2F)n1-c1cnc(O)c(F)c1F [Example 52, 6-(4,5-Difluoro-6-hydroxypyridin-3-yl)-5-((2,4,6-trifluorobenzyl)thio)thiazolo[4,5-d]-pyrimidin-7(6H)-one]
46.4	O=c1c2scnc2nc(SCc2ccc(C(F)(F)F)cc2F)n1-c1cnc(O)c(F)c1 [Example 42]
61.4	O=c1c2scnc2nc(SCc2c(F)cc(F)cc2F)n1-c1ccc(O)cc1Cl [Example 17]
> 100	O=c1c2scnc2nc(SCc2c(F)cc(F)cc2F)n1-c1ccc(O)nn1 [Example 67]
70.4	Cc1cc(Cl)ccc1CSc1nc2ncsc2c(=O)n1-c1cnc(O)c(F)c1 [Example 37]
87.9	Cc1cc(F)ccc1CSc1nc2ncsc2c(=O)n1-c1cnc(O)c(F)c1 [Example 36]
8.1	O=c1c2scnc2nc(SCc2c(F)cc(F)cc2F)n1-c1cc(F)c(O)cn1 [Example 20]
> 100	Cc1cc(F)cc(C)c1CSc1nc2ncsc2c(=O)n1-c1cnc(O)nc1 [Example 55]
> 100	O=c1c2scnc2nc(SCc2ccc(Cl)cc2)n1-c1cc(F)c(O)c(F)c1 [Example 5]
> 100	O=c1c2scnc2nc(SCc2ccc(F)cc2F)n1-c1cnc(O)c(F)c1 [Example 38]
32.3	O=c1c2scnc2nc(SCc2c(F)cc(F)cc2Cl)n1-c1cnc(O)c(F)c1 [Example 41]
> 100	Cc1cc(F)cc(C)c1CSc1nc2ncsc2c(=O)n1-c1cnc(O)c(F)c1 [Example 43]
> 100	O=c1c2scnc2nc(SCc2c(F)cc(F)cc2F)n1-c1cnc(O)c(F)c1 [Example 31, 6-(5-Fluoro-6-hydroxypyridin-3-yl)-5-((2,4,6-trifluorobenzyl)thio)thiazolo[4,5-d]-pyrimidin-7(6H)-one]
7.6	O=c1c2scnc2nc(SCc2c(F)cc(F)cc2F)n1-c1ccc(O)c(F)c1F [Example 12]
> 100	O=c1c2scnc2nc(SCc2ccc(Cl)cc2)n1-c1cnc(O)nc1 [Example 56]
> 100	O=c1c2scnc2nc(SCc2ccc(Cl)cc2F)n1-c1ccc(O)nc1 [Example 22, 5-((4-Chloro-2-fluorobenzyl)thio)-6-(6-hydroxypyridin-3-yl)thiazolo[4,5-d]pyrimidin-7(6H)-one]
> 100	O=c1c2scnc2nc(SCc2ccc(C(F)(F)F)cc2)n1-c1cc(F)c(O)c(F)c1 [Example 7]
3.7	Cc1cc(F)ccc1CSc1nc2ncsc2c(=O)n1-c1cc(F)c(O)c(F)c1 [Example 9]
> 100	Cc1cc(Cl)ccc1CSc1nc2ncsc2c(=O)n1-c1ccc(O)nn1 [Example 62]
83.4	O=c1c2scnc2nc(SCc2ccc(C(F)(F)F)cc2F)n1-c1ccc(O)nn1 [Example 65]
6.4	O=c1c2scnc2nc(SCc2c(F)cc(F)cc2F)n1-c1cc(F)c(O)nc1F [Example 51, 6-(2,5-Difluoro-6-hydroxypyridin-3-yl)-5-((2,4,6-trifluorobenzyl)thio)thiazolo[4,5-d]-pyrimidin-7(6H)-one]
16	O=c1c2scnc2nc(SCc2c(F)cc(F)cc2F)n1-c1c(F)cc(O)cc1F [Example 13]
86.8	O=c1c2scnc2nc(SCc2ccc(C(F)(F)F)cc2)n1-c1ccc(O)nc1 [Example 27]
39.2	Cc1c(F)cccc1CSc1nc2ncsc2c(=O)n1-c1cnc(O)c(F)c1 [Example 40]

IC50 [µM]	Structure (SMILES)
0.4	N#Cc1cc(-n2c(SCc3c(F)cc(F)cc3F)nc3ncsc3c2=O)ccc1O [Example 18]
> 100	O=c1c2scnc2nc(SCc2ccc(C(F)(F)F)cc2F)n1-c1cc(F)c(O)c(F)c1 [Example 6]
56.2	O=c1c2scnc2nc(SCc2ccc(Cl)cc2Cl)n1-c1cnc(O)c(F)c1 [Example 39]
16.3	O=c1c2scnc2nc(SCc2c(F)cc(F)cc2F)n1-c1ccc(O)c(F)c1 [Example 11]
> 100	O=c1c2scnc2nc(SCc2c(F)cc(F)cc2F)n1-c1ccc(O)nc1 [Example 28]
> 100	Cc1cc(F)ccc1CSc1nc2ncsc2c(=O)n1-c1ccc(O)nc1 [Example 29]
> 100	O=c1c2scnc2nc(SCc2ccc(Cl)cc2)n1-c1ccc(O)nc1 [Example 25]
28.2	O=c1c2scnc2nc(SCc2ccc(Cl)cc2F)n1-c1ccc(O)nn1 [Example 61, 5-((4-Chloro-2-fluorobenzyl)thio)-6-(6-hydroxypyridazin-3-yl)thiazolo[4,5-d]pyrimidin-7(6H)-one]
63.6	O=c1c2scnc2nc(SCc2ccc(Br)cc2F)n1-c1cnc(O)c(F)c1 [Example 34]
> 100	O=c1c2scnc2nc(SCc2c(F)cc(F)cc2F)n1-c1cnc(O)c(Cl)c1 [Example 48, 6-(5-Chloro-6-hydroxypyridin-3-yl)-5-((2,4,6-trifluorobenzyl)thio)thiazolo[4,5-d]pyri-midin-7(6H)-one]
> 100	O=c1c2scnc2nc(SCc2c(F)cc(F)cc2F)n1-c1ccc(O)cc1 [Example 15]
> 100	O=c1c2scnc2nc(SCc2ccc(Cl)cc2F)n1-c1cnc(O)nc1 [Example 53, 5-((4-Chloro-2-fluorobenzyl)thio)-6-(2-hydroxypyrimidin-5-yl)thiazolo[4,5-d]pyrimidin-7(6H)-one]
> 100	O=c1c2scnc2nc(SCc2ccc(C(F)(F)F)cc2)n1-c1ccc(O)nn1 [Example 66]
> 100	O=c1c2scnc2nc(SCc2c(F)cc(F)cc2F)n1-c1cnc(O)cc1F [Example 49, 6-(4-Fluoro-6-hydroxypyridin-3-yl)-5-((2,4,6-trifluorobenzyl)thio)thiazolo[4,5-d]pyrimidin-7(6H)-one]
> 100	O=c1c2scnc2nc(SCc2c(F)cc(F)cc2F)n1-c1ncc(O)cn1 [Example 21, 6-(5-Hydroxypyrimidin-2-yl)-5-((2,4,6-trifluorobenzyl)thio)thiazolo[4,5-d]pyrimidin-7(6H)-one]
73.1	O=c1c2scnc2nc(SCc2ccc(F)cc2Br)n1-c1cnc(O)c(F)c1 [Example 44]
> 100	Cc1cc(Cl)ccc1CSc1nc2ncsc2c(=O)n1-c1ccc(O)nc1 [Example 23]
> 100	O=c1c2scnc2nc(SCc2ccc(C(F)(F)F)cc2F)n1-c1cnc(O)nc1 [Example 57]
> 100	Cc1cc(F)ccc1CSc1nc2ncsc2c(=O)n1-c1cnc(O)nc1 [Example 58]
> 100	O=c1c2scnc2nc(SCc2c(F)cc(F)cc2F)n1-c1cnc(O)nc1 [Example 59]
71.5	O=c1c2scnc2nc(SCc2c(F)ccc(F)c2F)n1-c1cnc(O)c(F)c1 [Example 45]
> 100	O=c1c2scnc2nc(SCc2ccc(Cl)cc2)n1-c1cnc(O)c(F)c1 [Example 33]
98.1	O=c1c2scnc2nc(SCc2ccc(F)cc2)n1-c1ccc(O)nc1 [Example 30]
> 100	Cc1cc(F)cc(C)c1CSc1nc2ncsc2c(=O)n1-c1ccc(O)nn1 [Example 63]
> 100	O=c1c2scnc2nc(SCc2c(F)cc(F)cc2F)n1-c1ccc(O)cn1 [Example 19]
2.7	O=c1c2scnc2nc(SCc2c(F)cc(F)cc2F)n1-c1cc(F)c(O)c(F)c1 [Example 8]
> 100	O=c1c2scnc2nc(SCc2ccc(C(F)(F)F)cc2)n1-c1cnc(O)nc1 [Example 60]
